In patent US20100331348A1, “TROPANE DERIVATIVES USEFUL AS PESTICIDES” (SYNGENTA CROP PROTECTION, INC., priority 2007, published 2010):
Where two headings read alike, the source gives them in different places.

Legend:
Phytophthora infestans = experiment: whole plant or invertebrate; type: in vivo; conditions: foliar, 96 h, read-out: control of fungal infection, Phytophthora infestans
Plasmopara viticola = Plasmopara viticola (downy mildew of grapevine) leaf disk assay; type: in vivo; conditions: foliar, 168 h, preventive, seven days after inoculation, read-out: control of fungal infection, Plasmopara viticola
Myzus persicae = Myzus persicae (Green peach aphid) sunflower leaf disc test; conditions: foliar, 144 h, read-out: control of Myzus persicae
Tetranychus urticae = conditions: foliar, 192 h, read-out: control of Tetranychus urticae
[1] = system: Puccinia recondita f.sp. tritici; experiment: Puccinia recondita f.sp. tritici (wheat brown rust) leaf disk assay; type: in vivo; conditions: foliar, 216 h, preventive, nine days after inoculation, read-out: control of fungal infection, Puccinia recondita f.sp. tritici
Septoria tritici = Septoria tritici (leaf blotch) growth inhibition in nutrient broth; type: cell-based; conditions: Zymoseptoria tritici, 72 hrs, read-out: control of fungal infection, Septoria tritici
[2] = system: Erysiphe graminis f.sp. tritici; experiment: Erysiphe graminis f.sp. tritici (wheat powdery mildew) leaf disk assay; type: in vivo; conditions: Blumeria graminis, foliar, 96 h, preventive, four days after inoculation, read-out: control of fungal infection, Erysiphe graminis fsp. tritici
Pyricularia oryzae = experiment: whole plant or invertebrate; type: in vivo; conditions: foliar, 96 h
Aedes aegypti = Aedes aegypti (Yellow fever mosquito) larvae test; type: in vivo; conditions: 48 h
Heliothis virescens = Heliothis virescens (Tobacco budworm) egg test on artificial diet; conditions: 96 h, read-out: control of Heliothis virescens
Plutella xylostella = Plutella xylostella (Diamond back moth) artificial diet test; conditions: 120 h, read-out: control of Plutella xylostella
Pythium ultimum = Pythium ultimum (Damping off) growth inhibition in potato dextrose broth; type: cell-based; conditions: Globisporangium ultimum, 48 hours, read-out: control of fungal infection, Pythium ultimum
[3] = read-out: control of fungal infection, Pyricularia oryzae (at least 60% list)
[4] = read-out: control of fungal infection, Pyricularia oryzae (at least 80% list)

CC(C)(C)c1ccc(OC2C[C@H]3CC[C@@H](C2)N3c2ncnc3sccc23)cc1 (stereo partly drawn) [Example 1.25]
≥ 80%: pest or weed control at 200 ppm (Phytophthora infestans) | pest or weed control at 200 ppm (Plasmopara viticola) | pest or weed control at 200 ppm (Myzus persicae) | pest or weed control at 200 ppm (Tetranychus urticae)

CCc1ncnc(N2[C@@H]3CC[C@H]2CC(O)(COc2ccc(C)cc2)C3)c1Cl (stereo partly drawn) [Example 1.159]
≥ 80%: pest or weed control at 200 ppm [1] | pest or weed control at 200 ppm (Plasmopara viticola)
≥ 60%: inhibition of growth at 200 ppm (Septoria tritici)

CCc1ncnc(N2[C@@H]3CC[C@H]2CC(Oc2ccc(CCC(C)=O)cc2)C3)c1Cl (stereo partly drawn) [Example 1.213]
≥ 80%: pest or weed control at 200 ppm [2] | pest or weed control at 200 ppm [1] | pest or weed control at 200 ppm (Myzus persicae) | pest or weed control at 200 ppm (Tetranychus urticae)

FC(F)(F)c1cccc(OC2C[C@H]3CC[C@@H](C2)N3c2ncnc3ccsc23)n1 (stereo partly drawn) [Example 2.78]
≥ 60%: pest or weed control at 200 ppm (Pyricularia oryzae; [3]) | inhibition of growth at 200 ppm (Septoria tritici)
≥ 80%: pest or weed control at 200 ppm [1] | pest or weed control at 200 ppm (Pyricularia oryzae; [4])
109 °C: melting point

Cc1csc2c(N3[C@@H]4CC[C@H]3CC(Oc3cccc(C(F)(F)F)n3)C4)ncnc12 (stereo partly drawn) [Example 2.82]
≥ 80%: pest or weed control at 200 ppm [2]
123 °C: melting point
≥ 60%: pest or weed control at 200 ppm (Pyricularia oryzae; [3]) | inhibition of growth at 200 ppm (Septoria tritici)

CCc1ncnc(N2[C@@H]3CC[C@H]2CC(O/N=C(\C)c2cccnc2)C3)c1Cl (stereo partly drawn) [Example 2.97]
≥ 60%: pest or weed control at 200 ppm (Pyricularia oryzae; [3]) | inhibition of growth at 200 ppm (Septoria tritici)
≥ 80%: pest or weed control at 200 ppm (Plasmopara viticola) | pest or weed control at 200 ppm (Tetranychus urticae)

CCOC(=O)C=C1CC2CCC(C1)N2c1ncnc(CC)c1Cl [Example 3.8]
≥ 60%: inhibition of growth at 200 ppm (Septoria tritici)
≥ 80%: pest or weed control at 2 ppm (Aedes aegypti) | pest or weed control at 200 ppm [1] | pest or weed control at 200 ppm (Heliothis virescens)

CCc1ncnc(N2C3CCC2CC(=CCOc2cc(C)nc(C)n2)C3)c1Cl [Example 3.15]
≥ 80%: pest or weed control at 2 ppm (Aedes aegypti) | pest or weed control at 200 ppm [1] | pest or weed control at 200 ppm (Pyricularia oryzae; [4]) | pest or weed control at 200 ppm (Heliothis virescens)
≥ 60%: inhibition of growth at 200 ppm (Septoria tritici)

Cc1ccc(OCC=C2CC3CCC(C2)N3c2ncnc3sccc23)cn1 [Example 3.29]
≥ 80%: pest or weed control at 2 ppm (Aedes aegypti) | pest or weed control at 200 ppm [1] | pest or weed control at 200 ppm (Pyricularia oryzae; [4]) | pest or weed control at 200 ppm (Phytophthora infestans) | pest or weed control at 200 ppm (Plasmopara viticola) | pest or weed control at 200 ppm (Myzus persicae) | pest or weed control at 200 ppm (Plutella xylostella) | pest or weed control at 200 ppm (Heliothis virescens)

CCCCCC(=O)C=C1CC2CCC(C1)N2c1ncnc2sccc12 [Example 3.35]
≥ 60%: pest or weed control at 200 ppm (Pyricularia oryzae; [3]) | inhibition of growth at 200 ppm (Septoria tritici)
≥ 80%: pest or weed control at 2 ppm (Aedes aegypti) | pest or weed control at 200 ppm [1] | pest or weed control at 200 ppm (Pyricularia oryzae; [4]) | pest or weed control at 200 ppm (Plasmopara viticola) | pest or weed control at 200 ppm (Plutella xylostella)

CCc1ncnc(N2C3CCC2CC(=NOCc2ccc(Cl)cc2)C3)c1Cl [Example 5.21]
≥ 80%: pest or weed control at 2 ppm (Aedes aegypti) | pest or weed control at 200 ppm [2] | pest or weed control at 200 ppm [1] | pest or weed control at 200 ppm (Pyricularia oryzae; [4]) | pest or weed control at 200 ppm (Phytophthora infestans) | pest or weed control at 200 ppm (Myzus persicae) | pest or weed control at 200 ppm (Plutella xylostella) | pest or weed control at 200 ppm (Heliothis virescens)

CCc1ncnc(N2C3CCC2CC(=NOCc2ccc(C(F)(F)F)cc2)C3)c1Cl [Example 5.43]
≥ 80%: pest or weed control at 200 ppm [2] | pest or weed control at 200 ppm [1] | pest or weed control at 200 ppm (Pyricularia oryzae; [4]) | pest or weed control at 200 ppm (Myzus persicae) | pest or weed control at 200 ppm (Plutella xylostella) | pest or weed control at 200 ppm (Tetranychus urticae)

CCc1ncnc(N2C3CCC2CC(=NOCc2ccccc2F)C3)c1Cl [Example 5.54]
≥ 80%: pest or weed control at 2 ppm (Aedes aegypti) | pest or weed control at 200 ppm [2] | pest or weed control at 200 ppm [1] | pest or weed control at 200 ppm (Myzus persicae) | pest or weed control at 200 ppm (Plutella xylostella) | pest or weed control at 200 ppm (Tetranychus urticae)

FC(F)(F)c1ccc(CON=C2CC3CCC(C2)N3c2ncnc3ccccc23)cc1 [Example 5.128]
≥ 80%: pest or weed control at 2 ppm (Aedes aegypti) | pest or weed control at 200 ppm [1] | pest or weed control at 200 ppm (Pyricularia oryzae; [4]) | pest or weed control at 200 ppm (Plutella xylostella) | pest or weed control at 200 ppm (Heliothis virescens) | pest or weed control at 200 ppm (Tetranychus urticae)
≥ 60%: pest or weed control at 200 ppm (Pyricularia oryzae; [3]) | inhibition of growth at 200 ppm (Septoria tritici) | inhibition of growth at 200 ppm (Pythium ultimum)

Fc1ccc(F)c(CON=C2CC3CCC(C2)N3c2ncnc3ccccc23)c1F [Example 5.134]
≥ 80%: pest or weed control at 2 ppm (Aedes aegypti) | pest or weed control at 200 ppm [1] | pest or weed control at 200 ppm (Plutella xylostella) | pest or weed control at 200 ppm (Heliothis virescens)
≥ 60%: pest or weed control at 200 ppm (Pyricularia oryzae; [3]) | inhibition of growth at 200 ppm (Septoria tritici) | inhibition of growth at 200 ppm (Pythium ultimum)

Fc1cc(C(F)(F)F)ccc1CON=C1CC2CCC(C1)N2c1ncnc2ccccc12 [Example 5.135]
≥ 60%: pest or weed control at 200 ppm (Pyricularia oryzae; [3]) | inhibition of growth at 200 ppm (Septoria tritici) | inhibition of growth at 200 ppm (Pythium ultimum)
≥ 80%: pest or weed control at 2 ppm (Aedes aegypti) | pest or weed control at 200 ppm [1] | pest or weed control at 200 ppm (Pyricularia oryzae; [4]) | pest or weed control at 200 ppm (Plutella xylostella) | pest or weed control at 200 ppm (Heliothis virescens) | pest or weed control at 200 ppm (Tetranychus urticae)

Clc1ccc(CON=C2CC3CCC(C2)N3c2ncnc3sccc23)c(Cl)c1 [Example 5.152]
≥ 60%: pest or weed control at 200 ppm (Pyricularia oryzae; [3])
≥ 80%: pest or weed control at 2 ppm (Aedes aegypti) | pest or weed control at 200 ppm [2] | pest or weed control at 200 ppm [1] | pest or weed control at 200 ppm (Myzus persicae) | pest or weed control at 200 ppm (Plutella xylostella) | pest or weed control at 200 ppm (Heliothis virescens)

Fc1ccc(CON=C2CC3CCC(C2)N3c2ncnc3sccc23)cc1 [Example 5.166]
≥ 60%: pest or weed control at 200 ppm (Pyricularia oryzae; [3])
≥ 80%: pest or weed control at 2 ppm (Aedes aegypti) | pest or weed control at 200 ppm [2] | pest or weed control at 200 ppm [1] | pest or weed control at 200 ppm (Pyricularia oryzae; [4]) | pest or weed control at 200 ppm (Phytophthora infestans) | pest or weed control at 200 ppm (Plasmopara viticola) | pest or weed control at 200 ppm (Myzus persicae) | pest or weed control at 200 ppm (Plutella xylostella)

Cc1ccc(CON=C2CC3CCC(C2)N3c2ncnc3sccc23)c(C)c1 [Example 5.190]
≥ 80%: pest or weed control at 2 ppm (Aedes aegypti) | pest or weed control at 200 ppm [2] | pest or weed control at 200 ppm [1] | pest or weed control at 200 ppm (Phytophthora infestans) | pest or weed control at 200 ppm (Plasmopara viticola) | pest or weed control at 200 ppm (Myzus persicae) | pest or weed control at 200 ppm (Plutella xylostella)

Fc1ccc(F)c(CON=C2CC3CCC(C2)N3c2ncnc3sccc23)c1 [Example 5.218]
≥ 60%: pest or weed control at 200 ppm (Pyricularia oryzae; [3]) | inhibition of growth at 200 ppm (Pythium ultimum)
≥ 80%: pest or weed control at 2 ppm (Aedes aegypti) | pest or weed control at 200 ppm [2] | pest or weed control at 200 ppm [1] | pest or weed control at 200 ppm (Pyricularia oryzae; [4]) | pest or weed control at 200 ppm (Myzus persicae) | pest or weed control at 200 ppm (Plutella xylostella) | pest or weed control at 200 ppm (Tetranychus urticae)

Fc1ccc(CON=C2CC3CCC(C2)N3c2ncnc3sccc23)c(F)c1F [Example 5.222]
≥ 60%: pest or weed control at 200 ppm (Pyricularia oryzae; [3]) | inhibition of growth at 200 ppm (Pythium ultimum)
≥ 80%: pest or weed control at 2 ppm (Aedes aegypti) | pest or weed control at 200 ppm [2] | pest or weed control at 200 ppm [1] | pest or weed control at 200 ppm (Plasmopara viticola) | pest or weed control at 200 ppm (Myzus persicae) | pest or weed control at 200 ppm (Plutella xylostella)

Cc1nc(CON=C2CC3CCC(C2)N3c2ncnc3sccc23)no1 [Example 5.245]
≥ 80%: pest or weed control at 2 ppm (Aedes aegypti) | pest or weed control at 200 ppm [2] | pest or weed control at 200 ppm [1] | pest or weed control at 200 ppm (Pyricularia oryzae; [4]) | pest or weed control at 200 ppm (Myzus persicae) | pest or weed control at 200 ppm (Plutella xylostella) | pest or weed control at 200 ppm (Heliothis virescens)

c1ccc(CC2CC3CCC(C2)N3c2ncnc3sccc23)cc1 (stereo not drawn) [Example 7.6]
≥ 60%: pest or weed control at 200 ppm (Pyricularia oryzae; [3]) | inhibition of growth at 200 ppm (Septoria tritici)
≥ 80%: pest or weed control at 2 ppm (Aedes aegypti) | pest or weed control at 200 ppm [1] | pest or weed control at 200 ppm (Pyricularia oryzae; [4]) | pest or weed control at 200 ppm (Plasmopara viticola) | pest or weed control at 200 ppm (Heliothis virescens)

COC(=O)CC1CC2CCC(C1)N2c1ncnc2sccc12 (stereo not drawn) [Example 7.9]
≥ 60%: inhibition of growth at 200 ppm (Septoria tritici)
≥ 80%: pest or weed control at 2 ppm (Aedes aegypti) | pest or weed control at 200 ppm (Plutella xylostella) | pest or weed control at 200 ppm (Tetranychus urticae)

Clc1ccc(CC2CC3CCC(C2)N3c2ncnc3sccc23)cc1 (stereo not drawn) [Example 7.10]
≥ 80%: pest or weed control at 2 ppm (Aedes aegypti) | pest or weed control at 200 ppm [1] | pest or weed control at 200 ppm (Pyricularia oryzae; [4]) | pest or weed control at 200 ppm (Plasmopara viticola) | pest or weed control at 200 ppm (Heliothis virescens)
≥ 60%: pest or weed control at 200 ppm (Pyricularia oryzae; [3]) | inhibition of growth at 200 ppm (Septoria tritici)

CCc1ncnc(N2C3CCC2CC(Cc2ccccc2)C3)c1Cl (stereo not drawn) [Example 7.23]
≥ 80%: pest or weed control at 2 ppm (Aedes aegypti) | pest or weed control at 200 ppm [1] | pest or weed control at 200 ppm (Plutella xylostella)
≥ 60%: inhibition of growth at 200 ppm (Septoria tritici)

CCc1ncnc(N2C3CCC2CC(O)(CC#Cc2ccccc2)C3)c1Cl (stereo not drawn) [Example 7.35]
≥ 60%: pest or weed control at 200 ppm (Pyricularia oryzae; [3]) | inhibition of growth at 200 ppm (Septoria tritici)
≥ 80%: pest or weed control at 200 ppm [1] | pest or weed control at 200 ppm (Plasmopara viticola)

CCc1ncnc(N2C3CCC2CC(CC(=O)OC)C3)c1Cl (stereo not drawn) [Example 7.36]
≥ 80%: pest or weed control at 2 ppm (Aedes aegypti) | pest or weed control at 200 ppm (Plutella xylostella) | pest or weed control at 200 ppm (Heliothis virescens) | pest or weed control at 200 ppm (Tetranychus urticae)
≥ 60%: inhibition of growth at 200 ppm (Septoria tritici)
